Reference: patent US20170129911A1, “COMPLEXES COMPRISING A PLATINUM COMPOUND AND AN IMMUNE CHECKPOINT INHIBITOR AND RELATED METHODS” (Massachusetts Institute of Technology, priority 2015, published 2017)

Key:
[1] = Tolerability/toxicity in mice; format: in vivo
[2] = Whole human blood stability test; format: in vitro ADME
Method: To a volume of 0.8 mL fresh whole human blood (Innovative Research, Novi, Mich.) was added 24 μL of a DMSO solution of 2 (2.0 mM), resulting in a final concentration of 60 μM. After 5 sec of vortexing, a 100 μL aliquot of the blood sample (0 h time point) was immediately transferred to a new tube containing 300 μL of octanol, and the remaining […] of blood was incubated at 37° C. with rotation (1100 rpm). The blood-octanol mixture was vortexed for 2 min at R.T. and then centrifuged to separate the phases. The isolated octanol extract was diluted with methanol for GFAAS measurement. At varying time points (1 h, 2 h, 3 h, 5 h, and 7 h), a 100 μL aliquot was removed from the incubating blood and extracted as described above. For the 7 h sample, analytical HPLC was employed to confirm the integrity of the Pt compound. A standard of 2 and an octanol extract from blank whole human blood were used for comparison.

human IDO in SKOV3 cells = experiment: Immunoblotting and qRT-PCR of IDO expression in SKOV3 cells; format: cell-based
Method: Total RNA was isolated with the Qiagen RNAeasy RNA isolation kit (Hilden, Germany) and cDNA was synthesized with the Applied Biosystems reverse-transcription-kit (Foster City, Calif., USA). qRT-PCR was performed in a Light cycler 480 II thermo cycler with SYBR Green PCR Mastermix (Roche). All primers were separated by at least one intron on the genomic DNA to exclude its amplification. PCR reactions were checked by including no-RT controls, by omission of templates, and by melting curves. Standard curves were generated for each gene. Relative quantification of gene expression was determined by comparison of threshold values. All samples were analyzed in duplicate at two different dilutions. All results were normalized to GAPDH.
Cells were washed with PBS, scraped into SDS-PAGE loading buffer (64 mM Tris-HCl (pH 6.8)/9.6% glycerol/2% SDS/5% β-mercaptoethanol/0.01% Bromophenol Blue), and incubated at 95° C. for 10 min. […] Membranes were blocked in 5% (w/v) bovine serum albumin in PBST (PBS/0.1% Tween 20) and incubated with the appropriate primary antibodies (Cell Signalling Technology and Santa Cruz). After incubation with horseradish peroxidase-conjugated secondary antibodies (Cell Signalling Technology), 1:1000, immuno complexes were detected with the ECL detection reagent (BioRad) and analyzed using UVP biospectrum imaging system fitted with a chemiluminescence filter.

[3] = test system: A2780/CP70 human ovarian cancer cells; experiment: Cytotoxicity MTT assay, A2780/CP70; format: cell-based; conditions: A2780/CP70, MTT, 72 h
Text: (§1) Ovarian carcinoma cells, NIH:OVCAR3, A2780, A2780/CP70, and SKOV3 were purchased from the American Type Culture Collection (ATCC, Rockville Md.). Peripheral blood mononuclear cells (PBMCs) of two different donors were obtained from Zen Bio Inc. (Research Triangle, NC). Cancer cell lines were maintained in Roswell Park Memorial Institute (RPMI) medium (glutamine-free supplemented with 10% fetal bovine serum, Atlanta Biologics, Atlanta Ga.) and 1% penicillin/streptomycin. PBMCs were thawed in specialized medium (10% […], 40% RPMI and 50% FBS) and subsequently cultured in RPMI containing 20% FBS. For T-cell proliferation experiments, PBMCs were stimulated by the addition of phytohemagglutinin (PHA-P). All cells were grown at 310 K in a humidified atmosphere containing 5% CO2. D-1-methyltryptophan, L-tryptophan and L-kynurenine were purchased from Sigma Aldrich.
The colorimetric MTT assay was used to determine the toxicity of 1, 2, and cisplatin. Cells (2×10^3) were seeded in each well of a 96-well plate. […] Cisplatin was prepared as a 5 mM solution in PBS and diluted using media. 1, 2 and C16—Pt-Suc-NHC2H4OH were prepared as 10 mM solution in DMSO and diluted using media. The final volume amount of DMSO in each well was 0.5%, and which was present in the untreated control as well. Cells co-incubated with cisplatin and (D)-1-MT were first pre-treated with 1 mM (D)-1-MT. […] The RPMI/MTT, mixture was aspirated and 100 μL of DMSO was added to dissolve the resulting purple formazan crystals. The absorbance of the solution wells was read at 570 and 650 nm. Absorbance values were normalized to DMSO-containing control wells and plotted as concentration of test compound versus % cell viability. IC50 values were interpolated from the resulting dose dependent curves. The reported IC50 values are the average of at least three independent experiments, each of which consisted of six replicates per concentration level.

[4] = test system: NIH:OVCAR3 human ovarian cancer cells; experiment: Cytotoxicity MTT assay, NIH:OVCAR3; format: cell-based
Text: as §1
(§2) The colorimetric MTT assay was used to determine the toxicity of 1, 2, and cisplatin. Cells (2×10^3) were seeded in each well of a 96-well plate. […] Cisplatin was prepared as a 5 mM solution in PBS and diluted using media. 1, 2 and C16—Pt-Suc-NHC2H4OH were prepared as 10 mM solution in DMSO and diluted using media. […] The absorbance of the solution wells was read at 570 and 650 nm. Absorbance values were normalized to DMSO-containing control wells and plotted as concentration of test compound versus % cell viability. […]

[5] = Water-octanol partition coefficient (Log P), shake-flask method and GFAAS; conditions: octanol/PBS
[6] = test system: SKOV3 human ovarian cancer cells; experiment: Cytotoxicity MTT assay, SKOV3; format: cell-based
Text: as §1, §2

[7] = test system: A2780 human ovarian cancer cells; experiment: Cytotoxicity MTT assay, A2780; format: cell-based; conditions: 72 h
Text: as §1, §2

[8] = test system: HCT 116 P53−/− colorectal cell line; experiment: MTT anticancer activity, HCT116 p53 −/−; format: cell-based; conditions: 48 h
Method: (§3) An MTT assay was run to measure the compounds anti cancer activity. The two colorectal cell lines HCT 116 P53+/+ and HCT 116 P53−/− were plated on 96 well plates. After adhesion to the plate, each individual compound was added to three rows, each consisting of 8 wells with a 3 fold dilution in concentration per well beginning at 25 μM. After 48 hours of incubation, the MTT reagent was added to the plates, which were then incubated for another 4 hours. The well contents were then dissolved in 200 μL of DMSO, and the plates were read for UV absorption at 570 nm and 650 nm. The collected data was then analyzed to produce the sigmoidal curves, which were then used to interpolate the IC50 values of each compounds. (See Table 3).

[9] = test system: HCT 116 P53+/+ colorectal cell line; experiment: MTT anticancer activity, HCT116 p53 +/+; format: cell-based; conditions: 48 h
Method: as §3

[10] = reported values used for comparison with human blood stability; cited from earlier work
SKOV3 cells = experiment: Cell cycle analysis by flow cytometry (DNA content)
genomic DNA = experiment: DNA platination experiments; format: cell-based, human; conditions: SKOV3, 10 μM, 17 h
Method: To gain further insight into the mode of action was studied of 1 and 2, the subcellular distribution of platinum. SKOV3 cells were incubated with the drug candidates (5 μM) for 17 h, using cisplatin as a control. The platinum content was measured by using GFAAS.
These cells were then treated with the compounds (10 μM) in fresh medium (9 mL) and subsequently incubated for 17 h at 37° C. The medium was aspirated and the cells were washed with PBS (3×8 mL), harvested by trypsinization (1 mL), and washed with 2 mL of PBS. The cell suspension was centrifuged at 2000 rpm for 5 min at 4° C. The cell pellet was suspended in DNAzol (1 mL, genomic DNA isolation reagent,). The DNA was precipitated with pure ethanol (0.5 mL), washed with 75% ethanol (0.75 mL×3), and re-dissolved in 500 μL of 8 mM NaOH. The DNA concentration was determined by UV-Vis spectroscopy and the platinum content was quantified by GFAAS. All experiments were carried out in triplicate.

With `Cn1cc(C[C@@H](N)C(=O)[O][Pt]([NH2])([NH2])([Cl])([Cl])[O]C(=O)[C@H](N)Cc2cn(C)c3ccccc23)c2ccccc21` (mixture of isomers) [Compound 1, cis,cis,trans-[Pt(NH3)2Cl2(O2C-D-1-MT)2]] the “toxicity / tolerance in mice” value [1] was “low toxicity in mice”, the stability in blood [2] was “stable in blood” and the logP at 3 h (physchem) was -0.21 ± 0.08. For the same molecule, the “concentration at which IDO protein expression is blocked” value (human IDO in SKOV3 cells; immunoblotting) was 100 µM.

In the case of `Cn1cc(C[C@@H](N)C(=O)O)c2ccccc21` [(D)-1-MT, D-1-methyltryptophan], the IC50 ([3]; Homo sapiens) is reported as 1040 ± 63.9 µM, the IC50 ([4]; Homo sapiens, OVCAR-3, 72 h) is reported as 1200 ± 80 µM and the logP at 3 h [5] is reported as -2.98 ± 0.15. For the same molecule, the IC50 ([6]; Homo sapiens, SK-OV-3, 72 h) was 1918 ± 8.4 µM and the IC50 ([7]; Homo sapiens) was 833 ± 7.53 µM.

In the case of `CCCCCCCCCCCCCCCCNC(=O)[O][Pt]([NH2])([NH2])([Cl])([Cl])[O]C(=O)CCC(=O)O` [C16—Pt-Suc, reference compound], the “IDO protein expression (IDO inhibition)” value (human IDO in SKOV3 cells; immunoblotting and qRT-PCR) is reported as “did not show IDO inhibition”.

In the case of `O=C(O)C(=O)O.[NH-][C@@H]1CCCC[C@H]1[NH-].[Pt+2]` [Oxaliplatin], the IC50 [8] is reported as 6.55 ± 1.78 µM and the IC50 [9] is reported as 1.32 ± 1.48 µM.

For `CC(=O)[O][Pt]([NH2])([Cl])([Cl])([NH]C1CCCCC1)[O]C(C)=O` [satraplatin], the “t1/2 (reported)” value [10] is given as 6 min.

With [cis-Pt(NH3)2Cl2] [Cisplatin] the IC50 [3] was 10.4 ± 0.6 µM, the IC50 ([4]; 72 h) was 4.1 ± 0.2 µM and the “cell cycle arrest phase” value (SKOV3 cells) was “G2/M arrest”. The “t1/2 (reported)” value [10] was 21.6 min, the DNA platination (genomic DNA) was 409±54 Pt adducts/10^4 nucleotides and the IC50 ([6]; 72 h) was 3.7 ± 0.28 µM. For the same molecule, the IC50 [7] was 0.7 ± 0.2 µM.
